Experiments:
Assay type in all cases: cell-based
Trypanosoma cruzi = assay: ATP level (CellTiter-Glo); conditions: T. cruzi, IC90, 24 h, relative to negative control
Method: The CellTiter-Glo® luminescent cell viability assay (Promega, WI, USA) was used to quantify the adenosine triphosphate (ATP) concentration. Cells of the kinetoplastid strains (for both L. amazonensis [2 × 10^6 cells/ml] and T. cruzi [5 × 10^5cells/ml]) were incubated for 24 h with the compounds to be tested, at IC90 and 26 °C. After incubation, the cells were centrifuged and resuspended in 100 μl. To this volume, we added 100 μl of the reactive in white 96-well plates. After incubation, the luminescence signal was measured using the Enspire multimode plate reader. The decrease in ATP level was expressed as a percentage relative to the negative control. Miltefosine and benznidazole were tested as the positive control for L. amazonensis and T. cruzi, respectively.

[1] = test system: Leishmania amazonensis promastigotes; assay: Plasma membrane permeability assay (SYTOX Green); conditions: L. amazonensis, IC90, up to 6 h, compared to Triton X-100 (100%)
Method: This assay was performed to evaluate the cell’s membrane permeability. Following the manufacturer’s recommendations, promastigotes of L. amazonensis and epimastigotes of T. cruzi were incubated in phosphate saline buffer in the presence of 1 μM of SYTOX® Green nucleic acid stain (Life Technologies, Waltham, MA, USA) and the IC90 of the different test compounds to be tested. Variation in fluorescence was measured every 15 min for 6 h using the Enspire multimode plate reader at excitation/emission wavelengths of 485/520. The percentage of relative permeabilization was calculated in reference to complete permeabilization realized by adding Triton X-100 (Sigma-Aldrich). In addition, both L. amazonensis and T. cruzi cells were incubated for 24 h with compounds 1–3, miltefosine and benznidazole, and images were captured using the Evos cell imaging system.
One of the detectable cellular events of a necrotic cell death is the rupture of the plasma membrane. This event can be detected by evaluating plasma membrane permeabilization. We performed the SYTOX Green dye assay to detect effect of compounds 1–3 on membrane permeability. This green-fluorescence dye has a high affinity for DNA. Triton X-100 was used as a positive control in light of its known effect to cause 100% membrane permeabilization. Values of fluorescence were measured each 15 min for 6 h.

[2] = test system: Trypanosoma cruzi epimastigotes (Y strain); assay: In vitro evaluation on T. cruzi epimastigotes (AlamarBlue, 72 h); conditions: for IC50: 72 h, read-out: IC50: epimastigote; for IC90: nonlinear regression of AlamarBlue curve, read-out: IC90 Trypanosoma cruzi: epimastigote
Method: Experiments including in vitro activity assays of isolated compounds 1–3 were performed against the promastigote and amastigote stages of Leishmania amazonensis (MHOM/BR/77/LTB0016) and the epimastigote stage of Trypanosoma cruzi (Y strain). Promastigotes of L. amazonensis were cultured in Schneider’s medium (Sigma-Aldrich, St. Louis, MO, USA). Typanosoma cruzi strain Y was cultured in liver Infusion tryptose (LIT) medium. The three molecules 1-3 were tested against epimastigotes of T. cruzi. Briefly, the molecules were dissolved in DMSO in 96-well plates and a serially diluted concentration was made in 100 μl of LIT medium supplemented with 10% heat-inactivated FBS. In all tests, a maximum of 1% DMSO was used to dissolve the highest dose of the compounds without inducing any effects on the parasites; epimastigotes in the logarithmic growth phase were then counted, adjusted to 5 × 10^5 cells/ml, distributed on the previous 96-well plate and incubated at 27 °C for 72 h. The plate was observed under an inverted microscope after 72 h of incubation and analyzed statistically as described for the leishmanicidal test. Hoechst dye is a blue-fluorescent dye that stains condensed chromatin of apoptotic cells. To detect DNA condensation, the chromatin condensation/dead cell apoptosis kit was used (Invitrogen, Thermo Fisher Scientific, Waltham, MA, USA). Cells were incubated in the presence of the compounds to be tested at IC90. The IC90 values were determined using nonlinear regression of the AlamarBlue® curve. After 24 h of incubation, cells were harvested and resuspended in medium, following which 1 μl of Hoechst 33342 stock solution was added to parasites and incubated for 20 min. Results were analyzed by cell imaging using the Evos FL cell imaging system (Thermo Fisher Scientific). The experiments were repeated using a double-stain apoptosis detection kit (Hoechst 33342/PI; Thermo Fisher Scientific). […] A positive control was also tested: miltefosine (L. amazonensis) and benznidazole (T. cruzi).

[3] = test system: Leishmania amazonensis promastigotes; assay: Mitochondrial membrane potential (JC-1); conditions: L. amazonensis, IC90, 24 h, relative to negative control
Method: Promastigotes of L. amazonensis (2 × 10^6 cells/ml) and epimastigotes (5 × 10^5cells/ml) of T. cruzi were incubated for 24 h in the presence of the compounds to be tested, at IC90 and 26 °C, following which the cells were centrifuged, resuspended and transferred to black bottom 96-well plate. A 10-μl aliquot of JC-1 reagent (JC-1 Mitochondrial Membrane Potential Assay Kit; Cayman Chemical, Ann Arbor, MI, USA) was added to each well and the plates were incubated for 30 min. The switch of fluorescence from red to green emitted by both forms of the dye (monomer and aggregate) was measured using the Enspire microplate reader (PerkinElmer) at excitation/emission wavelengths of 560/595 and 485/535 for red and green, respectively; the decrease of the ratio was calculated as the percentage relative to the negative control. Cells images were captured using the Evos cell imaging system (Thermo Fisher Scientific), which is a fully integrated digital inverted microscope, at a magnification of ×40 and ×100. Untreated cells are used as the negative control, and miltefosine and benznidazole were used as the positive control.
Disruption of mitochondrial functions induced by the incubation of L. amazonensis and T. cruzi with compounds 1–3 was evaluated using the mitochondrial membrane potential as a measure. JC-1 dye was used in this assay. In the case of normal mitochondrial membrane potential, the reactive dye will form aggregates that emit red fluorescence; a collapsed potential induces the monomeric form with green fluorescence. This parameter is expressed as the absolute red/green ratio of fluorescence. We considered the values of the negative controls to be the normal values, and therefore the collapse of mitochondrial membrane potential is expressed as a percentage (see Fig. 4a). This parameter is involved in energy storage and is an important indicator of cell health and viability.

Compound | decrease in ATP concentration (Trypanosoma cruzi) | percentage of membrane permeabilization [1] | IC50 [2] | IC90 [2] | decrease in mitochondrial potential [3]
CC(C)=CCC[C@](C)(O)[C@@H]1CC[C@@H](C)[C@@H]2CC=C(C)[C@H]2[C@@H]1O [Compound 1, pachydictyol C] | > 70% | < 20% | 13.1 ± 3.62 µM | 75.4 µM | 34.0%
C=C1CC[C@@H]([C@@](C)(O)CCC=C(C)C)[C@@H](O)[C@@H]2C(C)=CC[C@@H]12 [Compound 2, dictyol E] | > 95% | < 20% | 18.3 ± 0.91 µM | 104 µM | 40.7%
C=C(C)[C@H]1CC[C@]2(C)C[C@@H]3O[C@@]3(C)CC/C=C(\C)CC[C@@H]12 [Compound 3, 3,4-epoxy-7,18-dolabelladiene] | > 95% | 35% | 35.3 ± 4.09 µM | 140 µM | > 80%
